{"source": "ChEMBL document CHEMBL3739362", "about": "“Brominated Variant of the Lantibiotic NAI-107 with Enhanced Antibacterial Potency” (2015)", "assay_type_in_all_cases": "functional", "key": {"[1]": {"tested_on": "Streptococcus pyogenes", "assay": "Antibacterial activity against Streptococcus pyogenes L49 by broth microdilution assay"}, "[2]": {"tested_on": "Enterococcus faecalis", "assay": "Antibacterial activity against vancomycin-resistant Enterococcus faecalis L560 by broth microdilution assay"}, "[3]": {"tested_on": "Enterococcus faecium", "assay": "Antibacterial activity against vancomycin-resistant Enterococcus faecium L569 by broth microdilution assay"}, "[4]": {"tested_on": "Streptococcus pneumoniae", "assay": "Antibacterial activity against Streptococcus pneumoniae L44 by broth microdilution assay"}, "[5]": {"tested_on": "Streptococcus pneumoniae", "assay": "Antibacterial activity against Streptococcus pneumoniae ATCC 49619 by broth microdilution assay"}, "[6]": {"tested_on": "Enterococcus faecalis", "assay": "Antibacterial activity against Enterococcus faecalis L559 by broth microdilution assay"}, "[7]": {"tested_on": "Staphylococcus aureus", "assay": "Antibacterial activity against glycopeptide-intermediate Staphylococcus aureus L3797 by broth microdilution assay"}, "[8]": {"tested_on": "Staphylococcus aureus", "assay": "Antibacterial activity against glycopeptide-intermediate Staphylococcus aureus L3798 by broth microdilution assay"}}}
{"compound": "CN[C@@H](CC(C)C)C(=O)N[C@H]1C(=O)N[C@@H](CC(N)=O)C(=O)N[C@H]2C(=O)N[C@H]3C(=O)N[C@H](C(=O)N[C@@H](C(=O)O)c4cc(O)cc(O)c4-c4cc3ccc4O)[C@H](O)c3ccc(c(Cl)c3)Oc3cc2cc(c3O[C@H]2O[C@@H](CO)[C@H](O)[C@@H](O)[C@@H]2O[C@@H]2C[C@@](C)(N)[C@@H](O)[C@@H](C)O2)Oc2ccc(cc2Cl)[C@H]1O", "values": [{"measurement": "MIC", "setting": "[1]", "result": 0.5, "unit": "µg/mL"}, {"measurement": "MIC", "setting": "[2]", "result": "> 64", "unit": "µg/mL"}, {"measurement": "MIC", "setting": "[3]", "result": "> 64", "unit": "µg/mL"}, {"measurement": "MIC", "setting": "[4]", "result": 0.5, "unit": "µg/mL"}, {"measurement": "MIC", "setting": "[5]", "result": 0.25, "unit": "µg/mL"}, {"measurement": "MIC", "setting": "[6]", "result": 1, "unit": "µg/mL"}, {"measurement": "MIC", "setting": "[7]", "result": 8, "unit": "µg/mL"}, {"measurement": "MIC", "setting": "[8]", "result": 16, "unit": "µg/mL"}]}
